Experiments:
Experiment in all cases: selective drug sensitivity score (sDSS, relative to normal bone marrow) (sDSS (score)); higher = more potent and effective on the cell line relative to normal bone marrow cells
Settings in all cases: 72 h
697 = test system: 697
ALL-PO = test system: ALL-PO
CCRF-HSB2 = test system: CCRF-HSB2
COG-LL-319h = test system: COG-LL-319h
KASUMI-10 = test system: KASUMI-10
KASUMI-2 = test system: KASUMI-2
KASUMI-9 = test system: KASUMI-9
KOPN-8 = test system: KOPN-8
LC4-1 = test system: LC4-1
MHH-CALL-4 = test system: MHH-CALL-4
MOLT-16 = test system: MOLT-16
MOLT-4 = test system: MOLT-4
NALL-1 = test system: NALL-1
NALM-6 = test system: NALM-6
PEER = test system: PEER
RCH-ACV = test system: RCH-ACV
SEM cells = test system: SEM cells
SUP-B15 = test system: SUP-B15
TANOUE = test system: TANOUE
TMD5 = test system: TMD5
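Also: ALL cell lines in 384-well plates, five doses spanning 10,000-fold, each plate scaled between vehicle and 100 µmol/L benzalkonium chloride controls, sDSS an adapted area-under-curve metric.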

| SMILES | selective drug sensitivity score 697 | selective drug sensitivity score (ALL-PO) | selective drug sensitivity score (CCRF-HSB2) | selective drug sensitivity score (COG-LL-319h) | selective drug sensitivity score (KASUMI-10) | selective drug sensitivity score (KASUMI-2) | selective drug sensitivity score (KASUMI-9) | selective drug sensitivity score (KOPN-8) | selective drug sensitivity score (LC4-1) | selective drug sensitivity score (MHH-CALL-4) | selective drug sensitivity score (MOLT-16) | selective drug sensitivity score (MOLT-4) | selective drug sensitivity score (NALL-1) | selective drug sensitivity score (NALM-6) | selective drug sensitivity score (PEER) | selective drug sensitivity score (RCH-ACV) | selective drug sensitivity score (SEM cells) | selective drug sensitivity score (SUP-B15) | selective drug sensitivity score (TANOUE) | selective drug sensitivity score (TMD5) |
| --- | --- | --- | --- | --- | --- | --- | --- | --- | --- | --- | --- | --- | --- | --- | --- | --- | --- | --- | --- | --- |
| COCCOc1cnc2ccn([C@H](C)c3nnc4c(F)cc(-c5cnn(C)c5)cn34)c(=O)c2c1 [AMG-337] (top concentration 10000 nM) | -0.06 | -0.06 | -0.06 | -0.06 | -0.06 | 2.14 | 0.14 | 1.54 | -0.06 | -0.06 | -0.06 | -0.06 | 2.14 | -0.06 | -0.06 | -0.06 | -0.06 | -0.06 | -0.06 | -0.06 |
| CC[C@H](C)C(=O)O[C@H]1C[C@H](O)C=C2C=C[C@H](C)[C@H](CC[C@@H](O)C[C@@H](O)CC(=O)O)[C@H]21 [Pravastatin] (top concentration 10000 nM) | -0.66 | -0.66 | -0.66 | 0.64 | -0.66 | -0.66 | -0.66 | -0.66 | 3.04 | -0.66 | -0.66 | -0.66 | -0.66 | -0.66 | -0.66 | -0.56 | -0.66 | 0.04 | -0.66 | -0.66 |
| O=C1c2c(O)ccc(O)c2C(=O)c2c(NCCNCCO)ccc(NCCNCCO)c21 [Mitoxantrone] (top concentration 1000 nM) | 15.6 | -0.06 | 14.2 | 16.3 | 12.7 | 12.3 | 11.8 | 16.3 | 6.74 | 11.1 | 17 | 8.34 | -5.06 | 2.44 | -6.26 | 16.2 | 8.04 | 15.7 | -12.9 | 4.54 |
| CC1(C)CNc2cc(NC(=O)c3cccnc3NCc3ccncc3)ccc21 [Motesanib] (top concentration 10000 nM) | -0.22 | -0.22 | 1.08 | 0.08 | -0.22 | -0.22 | -0.22 | -0.22 | -0.22 | -0.22 | -0.22 | -0.22 | -0.22 | 1.28 | 0.38 | -0.22 | -0.22 | -0.22 | 1.58 | -0.22 |
| CC1=C2C[C@H]3[C@@H](CC[C@@H]4C[C@H](NS(C)(=O)=O)CC[C@@]43C)[C@@H]2CC[C@@]2(C1)O[C@@H]1C[C@H](C)CN[C@H]1[C@H]2C [Saridegib] (top concentration 10000 nM) | 1.24 | 1.74 | 0.24 | -0.06 | -1.16 | 5.04 | -0.06 | -1.16 | 0.54 | 3.14 | -0.26 | -0.86 | -0.26 | -1.16 | 2.94 | 6.64 | -1.16 | 0.64 | -1.16 | 1.74 |
| CN[C@@H](C)C(=O)N[C@H]1CN(C(=O)CC(C)C)CC[C@H]2CC[C@@H](C(=O)NC(c3ccccc3)c3ccccc3)N2C1=O [AT-406] (top concentration 10000 nM) | -1.26 | -1.26 | 1.94 | -1.06 | -1.26 | 0.34 | -1.26 | -1.26 | -1.26 | -1.26 | -1.26 | -1.26 | 5.34 | -1.26 | -1.16 | 0.84 | -1.26 | -1.26 | -1.26 | 6.54 |
| CC/C(=C(\c1ccccc1)c1ccc(OCCN(C)C)cc1)c1ccccc1 [Tamoxifen] (top concentration 10000 nM) | 1.62 | 2.72 | 0.92 | 5.42 | -3.28 | 5.72 | 1.52 | 7.92 | 4.12 | 0.52 | 2.82 | -0.98 | 3.82 | 0.42 | 1.02 | 4.42 | -1.28 | 3.02 | -2.28 | -0.48 |
| CNC(=O)c1cccc2cc(Oc3ccnc4cc(OCC5(N)CC5)c(OC)cc34)ccc12 [Lucitanib] (top concentration 10000 nM) | 5.48 | 2.08 | 3.88 | 1.98 | 5.18 | 3.48 | 6.28 | 6.38 | 1.68 | -0.62 | 3.98 | 4.18 | 0.58 | 1.58 | 3.08 | 6.38 | 4.98 | 3.48 | 0.28 | 0.98 |
| Cc1nc(C(=O)NCC(=O)O)c(O)c2ccc(Oc3ccccc3)cc12 [Roxadustat] (top concentration 10000 nM) | -0.92 | -0.82 | -0.52 | 2.28 | -1.12 | -0.92 | -0.82 | -0.92 | -1.12 | -1.12 | 0.88 | -1.12 | -1.12 | -1.12 | 0.58 | -1.12 | -1.12 | -1.12 | -1.12 | -1.12 |

Source: the supplement of paper PMC8967900
